# Source: patent US11484599B2, “Polymer conjugate vaccines” (The University of Chicago, priority 2015, dated 2022)
# Experiments:
# [1] = system: OVA-specific immune response; experiment: Example 11: in vivo immune response after footpad vaccination with OVA formulations; design: species or system mice
# Method: FIG. 14: Mice were vaccinated at day 0 and day 28 with 10 μg OVA equivalent of the various forms and combinations shown, and were sacrificed on day 35 for analysis. The intensity of the CD8+ T cell response was judged by measuring the frequency of […] (SEQ ID NO. 1) pentamer-binding cells.
# FIG. 15: Mice were vaccinated at day 0 and day 28 with 10 μg OVA equivalent of the various forms and combinations shown, and were sacrificed on day 35 for analysis. The cytokine responsiveness of cells in the LN was determined after antigen re-exposure. […] Separation of the formulation into its component parts was not effective: of particular note, free antigen mixed with but not conjugated to the p(Man-TLR) nanoadjuvant (OVA+pManTLR, yellow) was not nearly as effective, showing the need for the conjugate.
# FIG. 16: The humoral response to vaccination was characterized by measuring the frequency of antibody-producing plasma cells and the frequency of Tfh cells in the spleen, and the antibody titers in the blood.
# Mice were vaccinated in the four footpads on day 0 and 28 with either OVA-p(Man-TLR), OVA and mTLR, OVA conjugated to p(Man) (OVA-p(Man)) and mTLR, OVA+p(Man-TLR) or just p(Man-TLR). Animals treated with formulations containing OVA received 10 μg of OVA in its free or conjugated form, and animals treated with formulations containing TLR received 30 μg of TLR in its free or […] form. The animals were sacrificed on day 35 and the spleens and lymph nodes were analyzed for the resulting immune response.
# DCs (CD11c+ cells) = experiment: Example 10: in vivo DC activation in draining lymph nodes after footpad injection; design: species or system mice; conditions: footpads, 50 μg fluorescently-labeled OVA, 24 h
# From the text: Activation is highest in DCs that collect the formulation and thus are also antigen-positive. Thus, both antigen and adjuvant are co-delivered to the same DCs, which are then the cells that are activated. This is one of the benefits of selecting TLR7 as an adjuvant target, based on its intracellular, endosomal localization.
# In order to be an effective adjuvant/delivery system for vaccine development, p(Man-TLR) conjugates preferably target antigens to APCs and activate these cells in vivo. Mice were injected in the footpads with 50 μg of fluorescently-labeled OVA conjugated to p(Man-TLR) or free non-conjugated fluorescently-labeled OVA. After 24 h, the draining lymph nodes of these animals were collected and processed into single cells suspensions. The lymphocytes were then analyzed via flow cytometry for the presence of the co-stimulatory molecule markers CD86 and CD80 on APCs. […] Furthermore, CD11c+ cells that had taken up OVA-p(Man-TLR) conjugates (i.e., Protein+CD11c+ cells) had higher levels of expression of CD80 and CD86 as compared to the expression of CD80 and CD86 on the total CD11c+ population of mice treated with OVA-p(Man-TLR).
# [2] = system: OVA-specific immune response; experiment: OVA vaccination day 0 and 28, humoral immune response; type: in vivo, mice
# Method: (§1) Mice were immunized on day 0 and 28 with one of […] formulations: 1.) 10 μg of OVA+30 μg, 2.) p(Man-TLR) (30 μg equivalent of TLR7-MA), 3.) 10 μg of OVA and unconjugated p(Man-TLR) (30 μg equivalent of TLR7-MA), 4.) 10 μg of OVA-p(Man) conjugate with 30 μg of TLR7-MA, or 5.) 10 μg of OVA-p(Man-TLR).
# In order to initiate protection against extracellular microorganisms and to prevent the spread of intracellular infections, effective vaccines preferably induce a strong humoral immune response. The ability of OVA-p(Man-TLR) to mount an effective humoral immune response was analyzed by determining the percentage of T follicular helper (Tfh) cells in the LN and spleen, the number of antigen specific plasma cells in the spleen, and the OVA specific antibody titers of vaccinated mice. […] Given these impressive results, we analyzed the blood of vaccinated animals for total OVA-specific IgG titers as well as OVA-specific IgG2C titers.
# [3] = system: OVA-specific immune response; experiment: OVA vaccination day 0 and 28, T cell response after restimulation; type: in vivo, mice
# Method: as §1
# Given the ability of p(Man-TLR) to activate BMDCS and target tethered proteins to various DC-subsets, mice were treated with OVA-p(Man-TLR) and the OVA-specific immune response was analyzed. Animals were treated on day 0 and 28 with an i.d. injection of OVA-p(Man-TLR), OVA-p(Man)+TLR7-MA, OVA and unconjugated p(Man-TLR), p(Man-TLR), or OVA+CpG. Mice receiving formulations that contained either free or polymer-conjugated OVA were treated with 10 μg of OVA on days 0 and 28. Mice treated with formulations containing either TLR7-MA or p(man-TLR) either free or OVA conjugated received 30 μg of TLR7-agonist as TLR7-MA or the total weight of TLR7-MA monomer units in the polymer on days 0 and 28. Mice treated with OVA and CPG received 30 μg of CPG on days 0 and 28. After 35 days, the lymphocytes from the spleen and lymph node were harvested and restimulated with either whole OVA or the CD8 immunodominant peptide […].
# B16F10/OVA tumors = experiment: Example 13: cancer vaccination in mice bearing B16F10/OVA tumors; type: in vivo, C57BL/6 mice
# Method: In order to determine if OVA-p(Man-TLR) conjugates could inhibit the growth of OVA-expressing tumors, mice bearing B16F10/OVA tumors (that is, B16F10 melanoma cells expressing the xeno-antigen OVA as a model tumor antigen) were treated with OVA-p(Man-TLR). 10^5 B16F10/OVA cells were inoculated subcutaneously (s.c.) between the scapulae in C57BL/6 mice on day 0 and left to engraft and grow for 4 days. On day 4, 7, and 14, mice were administered saline or vaccinated with OVA-p(Man-TLR) or OVA and free p(Man-TLR). Animals treated with OVA received 10 μg OVA and 40 μg of TLR.
substance,measurement,setting,value
OVA-p(Man-TLR): model antigen ovalbumin (OVA) conjugated to p(Man-TLR) via self-immolative linker,OVA-specific total IgG vs non-conjugate vaccine (OVA+pMan-TLR),[1]; FIG. 16,elevated by more than an order of magnitude
same,CD8+ and CD4+ T cells positive for both TNFα and IFNγ upon restimulation vs other treatments,[1]; day 35,significantly more CD8+ and CD4+ T cells that are positive for both the proinflammatory cytokines TNFα and IFNγ
same,OVA-specific antibodies in the blood vs other treatments,[1]; day 35,significantly more OVA-specific antibodies in the blood
same,splenic IgG producing plasma cells and T follicular helper cells vs other treatments,[1]; day 35,significantly more splenic IgG producing plasma cells and T follicular helper cells
same,OVA pentamer+ cells in lymph nodes and spleens vs other therapies,"[1]; footpads day 0 and 28, 10 μg OVA, 30 μg TLR, day 35",significantly more OVA pentamer+ cells in the lymph nodes and spleens
same,CD80 and CD86 expression on CD11c+ cells of draining lymph nodes vs free OVA,DCs (CD11c+ cells),express significantly more CD80 and CD86
same,total OVA-specific IgG and IgG2C titers vs other vaccine formulations,[2]; blood of vaccinated animals,significant increase in both total IgG and IgG2C titers
same,increase in number of IgG-producing plasma cells vs OVA+p(Man-TLR) or other formulations,"[2]; day 35, spleen, FIG. 11C",more than 2 fold
same,percentage of Tfh in lymph node and spleen vs other treatments,"[2]; day 35, vaccination on days 0 and 28",significantly increases the percentage of Tfh in the lymph node and spleen
same,IFNγ+CD4+ T cells after restimulation vs other treatments,"[3]; i.d. day 0 and 28, 10 μg OVA, 30 μg TLR7-agonist, day 35",significantly more IFNγ+CD4+ T cells
same,IFNγ+CD8 T cells in the lymph nodes vs OVA-p(Man)+TLR7-MA and OVA+CpG,"[3]; i.d. day 0 and 28, day 35",increased the number of IFNγ+CD8 T cells in the lymph nodes
same,TNFα positive CD8+ and CD4+ T cells in restimulated splenocytes vs other TLR7-MA or p(Man-TLR) formulations,"[3]; i.d. day 0 and 28, day 35",significantly increased the number of CD8+ and CD4+ T cells that are positive for TNFα
same,growth of B16/OVA tumors,"B16F10/OVA tumors; treated day 4, 7 and 14, 10 μg OVA and 40 μg of TLR",capable of inhibiting the growth of B16/OVA tumors
same,pentamer+CD8+ cells in the draining lymph nodes vs OVA+p(Man-TLR),B16F10/OVA tumors; tumor-bearing mice,induced significantly more pentamer+CD8+ cells in the draining lymph nodes
same,percentage of OVA pentamer+ cells in the draining lymph nodes,"B16F10/OVA tumors; tumor-bearing mice, FIG. 20",increased the percentage of OVA pentamer+ cells in the draining lymph nodes
